This note sets out measurements from patent US8129398B2 (priority 2008, dated 2012).

Where two headings read alike, the source gives them in different places.

For orientation: Ki means the dissociation constant of the complex between target and ligand, obtained from inhibition or displacement. Higher therefore signals weaker binding.

Assay [1] deals with T1, HIV-integrase (Human immunodeficiency virus type 1 group M subtype B, UniProt P12497).
T1 construct: Recombinant integrase (0.26 ng) was incubated with the beads
As to the kind of experiment: HIV-Integrase Inhibition Activity (SPA bead integration assay with P33 labeled target DNA). To be noted: for IC50: recombinant integrase, class symbols, read-out: in vitro activity; for Ki: representative compounds. Type of assay: biochemical. In a few lines: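 Strand integration read as bead-proximity CPM after P33 target DNA (0.1 fmol) and inhibitor were added to washed integrase–substrate DNA complexes on SPA beads. Enzyme bound 90 min at 37° C; EDTA (10 mM final) terminated reaction; IC50 graded A/B/C.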

Assay [2] has as its system recombinant NL-Rluc virus. Briefly: Inhibition of HIV replication (recombinant NL-Rluc virus, Renilla luciferase reporter). The class given is cell-based.
[3] abbreviates: read-out: Antiviral activity, NL-Rluc virus, serum condition not specified (10% FBS, 15 mg/ml human serum albumin/10% FBS or 40% human serum/5% FBS), class symbols.

For the compound `CC(=O)N1CCC[C@H]1C(=O)NC12CCC(CC1)Cn1c2nc(C(=O)NCc2ccc(F)cc2)c(O)c1=O` [Example 255, 7,10-Ethanopyrimido[1,2-a]azepine-2-carboxamide, 10-[[[(2S)-1-acetyl-2-pyrrolidinyl]carbonyl]amino]-N-[(4-fluorophenyl)methyl]-4,6,7,8,9,10-hexahydro-3-hydroxy-4-oxo-], the IC50 in assay [1] was less than 10 nM. Also, the EC50 in assay [2] (setting [3]) is less than 10 nM.
For `CN(C)C(=O)C(=O)NC12CCC(CCn3c1nc(C(=O)NCc1ccc(F)cc1)c(O)c3=O)C2` (single isomer, unassigned) [Example 414, Ethanediamide, N′-[2-[[[(4-fluorophenyl)methyl]amino]carbonyl]-7,8,9,10-tetrahydro-3-hydroxy-4-oxo-8,11-methano-4H-pyrimido[1,2-a]azocin-11(6H)-yl]-N,N-dimethyl-], the IC50 in assay [1] is less than 10 nM. Besides, the EC50 in assay [2] (setting [3]) is less than 10 nM.
On to `NC12CCC(CC1)Cn1c2nc(C(=O)NCc2ccc(F)cc2)c(O)c1=O` [Example 19, 10-Amino-N-(4-fluorobenzyl)-3-hydroxy-4-oxo-4,6,7,8,9,10-hexahydro-7,10-ethanopyrimido[1,2-a]azepine-2-carboxamide], for which, in assay [1], the IC50 is more than 100 nM and the Ki is 126 nM. Further, the EC50 in assay [2] (Human immunodeficiency virus 1) amounted to 302 nM.
On the same counts, the results for `Cc1cc(CNC(=O)c2nc3n(c(=O)c2O)CC2CCC3(NC(=O)C3(C(F)(F)F)CC3)CC2)ccc1F` [Example 303, 7,10-Ethanopyrimido[1,2-a]azepine-2-carboxamide, N-[(4-fluoro-3-methylphenyl)methyl]-4,6,7,8,9,10-hexahydro-3-hydroxy-4-oxo-10-[[[1-(trifluoromethyl)cyclopropyl]carbonyl]amino]-] are more than 100 nM, 180 nM and 192 nM.
Regarding `Cc1cc(CNC(=O)c2nc3n(c(=O)c2O)CC2CCC3(NC(=O)c3cccnn3)CC2)ccc1F` [Example 314, 7,10-Ethanopyrimido[1,2-a]azepine-2-carboxamide, N-[(4-fluoro-3-methylphenyl)methyl]-4,6,7,8,9,10-hexahydro-3-hydroxy-4-oxo-10-[(3-pyridazinylcarbonyl)amino]-], in assay [1], the IC50 was less than 10 nM and the inhibitory constant (Ki) was less than 1 nM. Further, in assay [2] (Human immunodeficiency virus 1), the EC50 is less than 1 nM.
For `O=C(NC12CCC(CC1)Cn1c2nc(C(=O)NCc2ccc(F)cc2)c(O)c1=O)C(=O)c1c[nH]c2c(-n3cncn3)ncc(F)c12` [Example 48, N-(4-Fluorobenzyl)-10-(((4-fluoro-7-(1H-1,2,4-triazol-1-yl)-1H-pyrrolo[2,3-c]pyridin-3-yl)(oxo)acetyl)amino)-3-hydroxy-4-oxo-4,6,7,8,9,10-hexahydro-7,10-ethanopyrimido[1,2-a]azepine-2-carboxamide], in assay [1], the IC50 is less than 10 nM and the Ki came out at 1 nM. In addition, the EC50 in assay [2] (Human immunodeficiency virus 1) was found to be 4 nM.
The like results for `Cc1cc(CNC(=O)c2nc3n(c(=O)c2O)CC2CCC3(NS(=O)(=O)C3CC3)CC2)ccc1F` [Example 42, 10-((Cyclopropylsulfonyl)amino)-N-(4-fluoro-3-methylbenzyl)-3-hydroxy-4-oxo-4,6,7,8,9,10-hexahydro-7,10-ethanopyrimido[1,2-a]azepine-2-carboxamide] were, in that order, less than 10 nM, 1 nM and 1 nM.
On the same counts, the results for `O=C(NCc1ccc(F)cc1)c1nc2n(c(=O)c1O)CC1CCC2(NS(=O)(=O)c2ccccc2OC(F)(F)F)CC1` [Example 396] are more than 100 nM, 294 nM and 455 nM.
For the compound `CS(=O)(=O)N1CCC[C@H]1C(=O)NC12CCC(CC1)Cn1c2nc(C(=O)NCc2ccc(F)cc2)c(O)c1=O` [Example 256, 7,10-Ethanopyrimido[1,2-a]azepine-2-carboxamide, N-[(4-fluorophenyl)methyl]-4,6,7,8,9,10-hexahydro-3-hydroxy-10-[[[(2S)-1-(methylsulfonyl)-2-pyrrolidinyl]carbonyl]amino]-4-oxo-], the IC50 in assay [1] was less than 10 nM. The EC50 in assay [2] (setting [3]) is less than 10 nM.
Regarding `O=C(NC12CCC(CC1)Cn1c2nc(C(=O)NCc2ccc(F)cc2)c(O)c1=O)c1cccnc1` [Example 33, N-(4-Fluorobenzyl)-3-hydroxy-4-oxo-10-((3-pyridinylcarbonyl)amino)-4,6,7,8,9,10-hexahydro-7,10-ethanopyrimido[1,2-a]azepine-2-carboxamide], in assay [1], the IC50 was less than 10 nM and the Ki is 1 nM. Besides, the EC50 in assay [2] (Human immunodeficiency virus 1) was 2 nM.
For `O=C(NCc1ccc(F)cc1)c1nc2n(c(=O)c1O)CC1CC2CN(C(=O)OCc2ccccc2)C1` (centres unmarked) [Example 6, 7,11-Methano-4H-pyrimido[1,2-a][1,5]diazocine-9(6H)-carboxylic acid, 2-[[[(4-fluorophenyl)methyl]amino]carbonyl]-7,8,10,11-tetrahydro-3-hydroxy-4-oxo-, phenylmethyl ester], in assay [1], the IC50 is 10 to 100 nM and the Ki was determined as 12 nM. Also, the EC50 in assay [2] (Human immunodeficiency virus 1) was 141 nM.
On the same counts, the results for `CC(=O)NC12CCC(CC1)Cn1c2nc(C(=O)NCc2ccc(F)cc2-n2ncnc2C)c(O)c1=O` [Example 38, 10-(Acetylamino)-N-(4-fluoro-2-(5-methyl-1H-1,2,4-triazol-1-yl)benzyl)-3-hydroxy-4-oxo-4,6,7,8,9,10-hexahydro-7,10-ethanopyrimido[1,2-a]azepine-2-carboxamide] are less than 10 nM, 9 nM and 37 nM.
On the same counts, the results for `Cc1noc(C)c1S(=O)(=O)NC12CCC(CC1)Cn1c2nc(C(=O)NCc2ccc(F)cc2)c(O)c1=O` [Example 392] are more than 100 nM, 467 nM and 618 nM.
On the same counts, the results for `O=C(NC12CCC(Cn3c1nc(C(=O)NCc1ccc(F)cc1)c(O)c3=O)OC2)OCc1ccccc1` (centres unmarked) [Example 219, Benzyl (2-((4-fluorobenzyl)carbamoyl)-3-hydroxy-4-oxo-6,7,8,9-tetrahydro-7,10-(epoxymethano)pyrimido[1,2-a]azepin-10(4H)-yl)carbamate] are 10 to 100 nM, 12 nM and 37 nM.
Take `CN(C)C(=O)C(=O)N(C)C12CCC(CC1)Cn1c2nc(C(=O)NCc2ccc(F)cc2)c(O)c1=O` [Example 157, N-(2-((4-Fluorobenzyl)carbamoyl)-3-hydroxy-4-oxo-6,7,8,9-tetrahydro-7,10-ethanopyrimido[1,2-a]azepin-10(4H)-yl)-N,N′,N′-trimethylethanediamide]: the IC50 in assay [1] is less than 10 nM.
In the case of `CC(C)OC(=O)N1CCCC1C(=O)NC12CCC(CC1)Cn1c2nc(C(=O)NCc2ccc(F)cc2)c(O)c1=O` (centres unmarked) [Example 405], the IC50 in assay [1] was less than 10 nM.
With `COc1ccccc1CNC(=O)c1nc2n(c(=O)c1O)CC1CCC2(NC(=O)C(=O)N(C)C)CC1` [Example 369], in assay [1], the IC50 is less than 10 nM.
The same measure, in the same setting: as for `CN(C)C(=O)C(=O)NC12CCC(CC1)Cn1c2nc(C(=O)NCc2ccc(F)c(F)c2)c(O)c1=O` [Example 111, N′-(2-((3,4-Difluorobenzyl)carbamoyl)-3-hydroxy-4-oxo-6,7,8,9-tetrahydro-7,10-ethanopyrimido[1,2-a]azepin-10(4H)-yl)-N,N-dimethylethanediamide], the figure is less than 10 nM.
Still for that read-out and setting: the same measure for `Cc1cnc(CNC(=O)c2nc3n(c(=O)c2O)CC2CCC3(NC(=O)C(=O)N(C)C)CC2)cn1` [Example 389]: 10 to 100 nM; for `O=C(NC12CCC(CC1)Cn1c2nc(C(=O)NCc2ccc(F)cc2)c(O)c1=O)C(=O)N1CCOCC1` [Example 60, N-(4-Fluorobenzyl)-3-hydroxy-10-((4-morpholinyl(oxo)acetyl)amino)-4-oxo-4,6,7,8,9,10-hexahydro-7,10-ethanopyrimido[1,2-a]azepine-2-carboxamide]: less than 10 nM; for `COCC1(C(=O)NC23CCC(CC2)Cn2c3nc(C(=O)NCc3ccc(F)c(C)c3)c(O)c2=O)CC1` [Example 302, 7,10-Ethanopyrimido[1,2-a]azepine-2-carboxamide, N-[(4-fluoro-3-methylphenyl)methyl]-4,6,7,8,9,10-hexahydro-3-hydroxy-10-[[[1-(methoxymethyl)cyclopropyl]carbonyl]amino]-4-oxo-]: less than 10 nM.
The same measure, in the same setting: the same measure for `CO[C@H]1C[C@@H](C(=O)NC23CCC(CC2)Cn2c3nc(C(=O)NCc3ccc(F)c(C)c3)c(O)c2=O)N(C(=O)c2cc(C)on2)C1` [Example 296, 7,10-Ethanopyrimido[1,2-a]azepine-2-carboxamide, N-[(4-fluoro-3-methylphenyl)methyl]-4,6,7,8,9,10-hexahydro-3-hydroxy-10-[[[(2S,4S)-4-methoxy-1-[(5-methyl-3-isoxazolyl)carbonyl]-2-pyrrolidinyl]carbonyl]amino]-4-oxo-]: less than 10 nM; for `O=C(NC(=S)NC12CCC(CC1)Cn1c2nc(C(=O)NCc2ccc(F)cc2)c(O)c1=O)c1ccccc1` [Example 332, 7,10-Ethanopyrimido[1,2-a]azepine-2-carboxamide, 10-[[(benzoylamino)thioxomethyl]amino]-N-[(4-fluorophenyl)methyl]-4,6,7,8,9,10-hexahydro-3-hydroxy-4-oxo-]: 10 to 100 nM.
As to `Cc1cc(CNC(=O)c2nc3n(c(=O)c2O)CC2CCC3(NC(=O)C(=O)N(C)C)C2)ccc1F` (centres unmarked) [Example 196, Ethanediamide, N′-[2-[[[(4-fluoro-3-methylphenyl)methyl]amino]carbonyl]-6,7,8,9-tetrahydro-3-hydroxy-4-oxo-7,10-methanopyrimido[1,2-a]azepin-10(4H)-yl]-N,N-dimethyl-], the IC50 in assay [1] was less than 10 nM.
With `Cn1cc(C(=O)NC23CCC(CC2)Cn2c3nc(C(=O)NCc3ccc(F)cc3)c(O)c2=O)nn1` [Example 248, 7,10-Ethanopyrimido[1,2-a]azepine-2-carboxamide, N-[(4-fluorophenyl)methyl]-4,6,7,8,9,10-hexahydro-3-hydroxy-10-[[(1-methyl-1H-1,2,3-triazol-4-yl)carbonyl]amino]-4-oxo-], the IC50 in assay [1] is less than 10 nM.
